The values below come from the supplement of paper PMC10307832.

What all share (assay): relative viability (nuclei count vs DMSO), 5 days (fraction); higher = more cells survive
Compound in the experiment “IPA-3 + Phenformin”: C1=CC=C2C(=C1)C=CC(=C2SSC3=C(C=CC4=CC=CC=C43)O)O [IPA-3] + N=C(N)NC(=N)NCCc1ccccc1 [Phenformin] (partner 250 µM)
Put shortly:
(§1)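 One day after seeding in 1536-well plates, lung cancer cell lines were dosed by pin tool. Dosing was either single-drug or a fixed anchor-drug dose plus five library-drug doses (not always all listed) in √10 steps. After 5 days, nuclei were stained in one fix-and-stain step and counted on 4× images, and relative viability is the nuclei count of treated wells over that of vehicle wells, given as the median of duplicate plates.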

Compound in the experiment “RAF265 + Olaparib”: Cn1c(Nc2ccc(C(F)(F)F)cc2)nc2cc(Oc3ccnc(-c4ncc(C(F)(F)F)[nH]4)c3)ccc21 [RAF265] + O=C(c1cc(Cc2n[nH]c(=O)c3ccccc23)ccc1F)N1CCN(C(=O)C2CC2)CC1 [Olaparib] (partner 8 µM)
In short, it runs like this:
as §1

Compound in the experiment “RAF265 + Pemetrexed”: Cn1c(Nc2ccc(C(F)(F)F)cc2)nc2cc(Oc3ccnc(-c4ncc(C(F)(F)F)[nH]4)c3)ccc21 [RAF265] + Nc1nc2[nH]cc(CCc3ccc(C(=O)N[C@@H](CCC(=O)O)C(=O)O)cc3)c2c(=O)[nH]1 [Pemetrexed] (partner 0.2 µM)
Put shortly: as §1

Compound in the experiment “Doramapimod + Navitoclax”: Cc1ccc(-n2nc(C(C)(C)C)cc2NC(=O)Nc2ccc(OCCN3CCOCC3)c3ccccc23)cc1 [Doramapimod] + CC1(C)CCC(c2ccc(Cl)cc2)=C(CN2CCN(c3ccc(C(=O)NS(=O)(=O)c4ccc(N[C@H](CCN5CCOCC5)CSc5ccccc5)c(S(=O)(=O)C(F)(F)F)c4)cc3)CC2)C1 [Navitoclax] (partner 0.5 µM)
Put shortly: as §1

As to UMC-11, the relative viability with IPA-3 + Phenformin (first compound 0.2 µM) amounted to 0.391; with IPA-3 + Phenformin (first compound 0.6325 µM), 0.336; in the experiment with IPA-3 + Phenformin (first compound 2 µM), 0.316; with IPA-3 + Phenformin (first compound 6.325 µM), 0.341; in the experiment with IPA-3 + Phenformin (first compound 20 µM) it was 0.357; in the experiment with RAF265 + Olaparib (first compound 0.01 µM), 0.408. Also, the relative viability with RAF265 + Olaparib (first compound 0.03162 µM) stood at 0.368; with RAF265 + Olaparib (first compound 0.1 µM) it was 0.966; in the experiment with RAF265 + Olaparib (first compound 0.3162 µM), 0.31; with RAF265 + Olaparib (first compound 1 µM), 0.329; with RAF265 + Pemetrexed (first compound 0.01 µM), 0.689; with RAF265 + Pemetrexed (first compound 0.03162 µM), 0.854. Also, the relative viability with RAF265 + Pemetrexed (first compound 0.1 µM) came out at 0.764; with RAF265 + Pemetrexed (first compound 0.3162 µM), 0.761; with RAF265 + Pemetrexed (first compound 1 µM), 0.639; with Doramapimod + Navitoclax (first compound 0.02 µM) it was 0.304; in the experiment with Doramapimod + Navitoclax (first compound 0.06325 µM), 0.275; with Doramapimod + Navitoclax (first compound 0.2 µM), 0.323. Further, the values for the relative viability in the experiment with Doramapimod + Navitoclax (first compound 0.6325 µM) and with Doramapimod + Navitoclax (first compound 2 µM) were 0.344 and 0.271, respectively.
